These results are taken from US4013657A, “O-ethyl-S-n-propyl-O-[pyridaz-(6)-on-(3)-yl]-thionothiolphosphoric acid esters” (priority 1973, dated 1977).

Read-outs that look alike come from different tables or passages of the source. A value given as a limit tells only on which side of the number the result lay.

Data set [1] in a line: Toxicity test, albino rat/peroral. The conditions noted are these: in vivo, po; albino rat; peroral; evaluation after 7 days. On the procedure:
Test animal: Albino rat (Rattus norvegicus)
To produce a suitable preparation of active compound, 3 parts by weight of active compound were mixed with 2.8 parts by weight of highly disperse silica and 4.2 parts by weight of talc. Suspensions, which contained, in 1 ml of liquid, the amount of active compound to be adminstered per 100 g of animal weight, were prepared from the above active-compound concentrate, with addition of a little powdered vegetable gum, by trituration with water. The dosage was measured out volumetrically after weighing the test animals. It was administered orally by means of a steel knob-ended probe. The results were in each case evaluated at the end of the above-mentioned interval of time, calculated from the administration of the active compound.
The LD50 values (dose of active compound which kills 50% of the treated animals) was determined from the mortality values of the dose which were varied in geometrical progression, in the usual manner.
The active compounds and LD50 values can be seen from Table 5 which follows.

Data set [2] relates to fly larvae (Lucilia cuprina). Nature of the data set: Test with parasitic fly larvae/Lucilia cuprina res. The data set is classed as in vivo. The note with it: after 24 hours, resistant larvae, read-out: Degree of destruction in %; for mortality at 10 ppm: active compound concentration 10 ppm; for mortality at 30 ppm: active compound concentration 30 ppm; for mortality at 100 ppm: active compound concentration 100 ppm. On the procedure:
Test with parasitic fly larvae
35 parts by weight of ethylene polyglycol monomethyl ether
35 parts by weight of nonylphenol polyglycol ether
To produce a suitable preparation of active compound, 30 parts by weight of the active substance in question were mixed with the stated amount of solvent which contained the above-mentioned proportion of emulsifier and the concentrate thus obtained was diluted with water to the desired concentration.
About 20 fly larvae (Lucilia cuprina) were introduced into a test tube which contained approximately 2 ml of horse muscle. 0.5 ml of the preparation of active compound was applied to this horse meat. After 24 hours, the degree of destruction in % was determined. 100% means that all the larvae had been killed and 0% means that no larvae had been killed.

Data set [3] relates to two-spotted spider mite (Tetranychus urticae). Nature of the data set: Tetranychus test (resistant). The class given is in vivo. The conditions noted are these: 48 h, after 2 days, resistant mites, read-out: Degree of destruction in % after 2 days; for mortality at 0.01 %: active compound concentration 0.01 %; for mortality at 0.1 %: active compound concentration 0.1 %. On the procedure: Tetranychus test (resistant)
(§1) Solvent: 3 parts by weight of acetone
(§2) Emulsifier: 1 part by weight of alkylaryl polyglycol ether
(§3) To produce a suitable preparation of active compound, 1 part by weight of the active compound was mixed with the stated amount of solvent containing the stated amount of emulsifier and the concentrate was diluted with water to the desired concentration.
These bean plants were heavily infested with the two-spotted spider mite (Tetranychus urticae) in all stages of development.
After the specified periods of time, the effectiveness of the preparation of active compound was determined by counting the dead mites. The degree of destruction thus obtained was expressed as a percentage: 100% means that all the spider mites were killed whereas 0% means that none of the spider mites were killed.
The active compounds, the concentrations of the active compounds, the evaluation times and the results can be seen from the following Table 3: […]

For data set [4], the system named is vinegar flies (Drosophila melanogaster). Nature of the data set: Drosophila test. The data set is classed as in vivo. The conditions noted are these: 24 h, read-out: Degree of destruction in % after 1 day; for mortality at 0.01 %: active compound concentration 0.01 %. On the procedure: as §1, §2
To produce a suitable preparation of active compound, 1 part by weight of the active compound was mixed with the stated amount of solvent containing the stated amount of emulsifier, and the concentrate was diluted with water to the desired concentration.
1 ml of the preparation of the active compound was applied with a pipette to a filter paper disc of 7 cm diameter. The wet disc was placed over the orifice of a glass vessel containing 50 vinegar flies (Drosophila melanogaster) and covered with a glass plate.
After the specified periods of time, the destruction was determined in %. 100% means that all the flies were killed, and 0% means that no flies were killed.
The active compounds, the concentrations of the active compounds, the evaluation times and the degree of destruction can be seen from the following Table 1: […]

For data set [5], the system named is caterpillars of the diamond-back moth (Plutella maculipennis). Description: Plutella test. The conditions noted are these: 72 h, read-out: Degree of destruction in % after 3 days; for mortality at 0.001 %: active compound concentration 0.001 %; for mortality at 0.01 %: active compound concentration 0.01 %. The data set is classed as in vivo. On the procedure: as §1, §2, §3
Cabbage leaves (Brassica oleracea) were sprayed with the preparation of the active compound until dew moist and were then infested with caterpillars of the diamond-back moth (Plutella maculipennis).
After the specified periods of time, the degree of destruction was determined as a percentage: 100% means that all the caterpillars were killed, whereas 0% means that none of the caterpillars were killed.
The active compounds, the concentrations of the active compounds, the evaluation times and the results can be seen from the following Table 2.

The test system of another data set is warm-blooded animals. The conditions noted are these: prior-art compounds; cited from earlier work.
The next data set concerns insects and acarids. The conditions noted are these: prior-art compounds; cited from earlier work.
The mark [6] stands for this setting: active compound concentration 0.1 %, after 1 day.
Where [7] appears, read: active compound concentration 0.1 %, after 3 days.

Take `CCCSP(=S)(OCC)Oc1ccc(=O)[nH]n1` (stereo not shown) [Compound 1, O-ethyl-S-n-propyl-O-[pyridaz-(6)-on-(3)-yl]-thionothiolphosphoric acid ester]: the LD50 at 168 h in data set [1] was 100 to 250 mg/kg.

As to `CCCSP(=S)(OCC)Oc1ccc(=O)n(CCC#N)n1` (stereo not drawn) [Compound 2, O-ethyl-S-n-propyl-O-[1-β-cyanoethyl-pyridaz-(6)-on-(3)-yl]-thionothiolphosphoric acid ester], in data set [2], the mortality at 10 ppm is 100%, the mortality at 30 ppm was found to be 100% and the mortality at 100 ppm was found to be 100%. In addition, in data set [1], the LD50 at 168 h is 250 to 500 mg/kg.

On to `CCCSP(=S)(OCC)Oc1ccc(=O)n(C)n1` (stereo not shown) [Compound 3], for which, in data set [3], the mortality at 0.01 % worked out at 70% and the mortality at 0.1 % stood at 100%. Further, in data set [2], the mortality at 10 ppm was 100%, the mortality at 30 ppm was 100% and the mortality at 100 ppm worked out at 100%. Besides, in data set [1], the LD50 at 168 h was in the range of 100 to 250 mg/kg. The mortality at 0.01 % in data set [4] (after 1 day) worked out at 100%. Further, the mortality at 0.1 % in data set [4] (setting [6]) was found to be 100%.

On to `C=CCn1nc(OP(=S)(OCC)SCCC)ccc1=O` (stereo not shown) [Compound 6], for which the mortality at 0.01 % in data set [3] amounted to 55%; in data set [4] (after 1 day), 100%. Besides, the mortality at 0.1 % in data set [3] and in data set [4] (setting [6]) was 100% in each case. Moreover, the LD50 at 168 h in data set [1] is about 500 mg/kg.

Take `C#CCn1nc(OP(=S)(OCC)SCCC)ccc1=O` (stereo not shown) [Compound 7]: the mortality at 0.01 % is 45% in data set [3] and 100% in data set [4] (after 1 day). The mortality at 0.1 % in data set [3] and in data set [4] (setting [6]) was 100% in each case. The compound further gave an LD50 at 168 h in data set [1] of about 250 mg/kg.

For the compound `CCCSP(=S)(OCC)Oc1ccc(=O)n(CCSCC)n1` (stereo not shown) [Compound 8], the mortality at 0.01 % is 80% in data set [3] and 100% in data set [4] (after 1 day). The mortality at 0.1 % in data set [3] and in data set [4] (setting [6]) was 100% each time. In data set [1], this compound yielded an LD50 at 168 h of 250 to 500 mg/kg.

In turn, `CCCSP(=S)(OCC)Oc1ccc(=O)n(CC(=O)OCC)n1` (stereo not shown) [Compound 9] gave an LD50 at 168 h in data set [1] of about 500 mg/kg.

With `CCCSP(=S)(OCC)Oc1ccc(=O)n(CCC(C)=O)n1` (stereo not shown) [Compound 10], the LD50 at 168 h in data set [1] fell in the range of 250 to 500 mg/kg.

Turning to `CCCSP(=S)(OCC)Oc1ccc(=O)n(CCC(=O)OC)n1` (stereo not shown) [Compound 11], the LD50 at 168 h in data set [1] was about 250 mg/kg.

`CCCSP(=S)(OCC)Oc1ccc(=O)n(-c2ccccc2)n1` (stereo not shown) [Compound 13]: the mortality at 0.01 % in data set [3], in data set [5] (after 3 days) and in data set [4] (after 1 day) was 100% each time. Moreover, the mortality at 0.1 % in data set [3], in data set [5] (setting [7]) and in data set [4] (setting [6]) was 100% each time. In data set [5] (after 3 days), the mortality at 0.001 % was determined as 95%. The LD50 at 168 h in data set [1] was 250 to 500 mg/kg.

Turning to `CCCSP(=S)(OCC)Oc1ccc(=O)n(-c2cccc([N+](=O)[O-])c2)n1` (stereo not shown) [Compound 14], in data set [5] (after 3 days), the mortality at 0.001 % worked out at 95% and the mortality at 0.01 % amounted to 100%. The mortality at 0.1 % in data set [5] (setting [7]) was 100%. The LD50 at 168 h in data set [1] was over 1000 mg/kg.

Take `CCCSP(=S)(OCC)Oc1ccc(=O)n(-c2ccc(C)cc2)n1` (stereo not shown) [Compound 15]: in data set [2] (active compound concentration 3 ppm), the mortality at 3 ppm was over 50%. In data set [2], the mortality at 10 ppm was 100%, the mortality at 30 ppm came out at 100% and the mortality at 100 ppm was determined as 100%. The 50% lethal dose (LD50) at 168 h in data set [1] was about 500 mg/kg.

Consider `CCCSP(=S)(OCC)Oc1ccc(=O)n(-c2ccc(Cl)cc2)n1` (stereo not shown) [Compound 16], for which the LD50 at 168 h in data set [1] is over 1000 mg/kg.

`CCCSP(=S)(OCC)Oc1ccc(=O)n(-c2cccc(Cl)c2)n1` (stereo not shown) [Compound 17]: the median lethal dose (LD50) at 168 h in data set [1] was over 1000 mg/kg.

With `CCCSP(=S)(OCC)Oc1ccc(=O)n(C2CCS(=O)(=O)C2)n1` (stereo not shown) [Compound 18], the LD50 at 168 h in data set [1] was about 500 mg/kg.

Turning to `CCCSP(=S)(OCC)Oc1nn(CN2CCCC2)c(=O)c2ccccc12` (stereo not shown) [Compound 19], in data set [1], the LD50 at 168 h was 100 to 250 mg/kg. Moreover, the mortality at 0.01 % in data set [4] (after 1 day) was 100%. Moreover, the mortality at 0.1 % in data set [4] (setting [6]) was determined as 100%.

Regarding `CCCSP(=S)(OCC)Oc1nn(CN2CCCCC2)c(=O)c2ccccc12` (stereo not shown) [Compound 20], in data set [3], the mortality at 0.01 % was determined as 80% and the mortality at 0.1 % was 100%. Further, the LD50 at 168 h in data set [1] fell in the range of 250 to 500 mg/kg.

The compound `CCCSP(=S)(OCC)Oc1n[nH]c(=O)c2ccccc12` (stereo not shown) [Compound 21] returned an LD50 at 168 h in data set [1] of about 500 mg/kg.

On to `CCOP(=S)(OCC)Oc1ccc(=O)n(C)n1` [Compound C, O,O-diethyl-O-[1-methyl-pyridaz-(6)-on-(3)-yl]-thionophosphoric acid ester], for which the “toxicity to warm-blooded animals” value in the data set on warm-blooded animals is on record as “high toxicity to warm-blooded animals”. Besides, the “insecticidal and acaricidal properties” value in the data set with insects and acarids is “good insecticidal and acaricidal properties”. In data set [1], this compound yielded an LD50 at 168 h of 5 to 10 mg/kg.

In the case of `CCOP(=S)(OCC)Oc1ccc(=O)n(CCC#N)n1` [Compound D, O,O-diethyl-O-[1-β-cyanoethyl-pyridaz-(6)-on-(3)-yl]-thionophosphoric acid ester], the “toxicity to warm-blooded animals” value in the data set with warm-blooded animals is given as “high toxicity to warm-blooded animals”. The “insecticidal and acaricidal properties” value with insects and acarids is “good insecticidal and acaricidal properties”. Further, the median lethal dose (LD50) at 168 h in data set [1] fell in the range of 10 to 25 mg/kg.

For the compound `CCOC(=O)Cn1nc(OP(=S)(OCC)OCC)ccc1=O` [Compound E, O,O-diethyl-O-[1-ethoxycarbonylmethyl-pyridaz-(6)-on-(3)-yl]-thionophosphoric acid ester, reference compound], in the data set on warm-blooded animals, the “toxicity to warm-blooded animals” value was “high toxicity to warm-blooded animals”. Moreover, the “insecticidal and acaricidal properties” value in the data set with insects and acarids was “good insecticidal and acaricidal properties”. Besides, in data set [2], the mortality at 10 ppm was over 50% and the mortality at 100 ppm came out at 100%.

For the compound `CCOP(=S)(OCC)Oc1ccc(=O)n(-c2ccc(C)cc2)n1` [Compound F, O,O-diethyl-[1-p-methylphenyl-pyridaz-(6)-on-(3)-yl]-thionophosphoric acid ester, reference compound], in data set [3], the mortality at 0.01 % turned out to be 0% and the mortality at 0.1 % is 40%. In addition, in the data set on warm-blooded animals, the “toxicity to warm-blooded animals” value was “high toxicity to warm-blooded animals”. In the data set on insects and acarids, the “insecticidal and acaricidal properties” value is “good insecticidal and acaricidal properties”. Further, the LD50 at 168 h in data set [1] was 50 to 100 mg/kg.

For `CCOP(=S)(OCC)Oc1ccc(=O)n(CCC(C)=O)n1` [G], in data set [5] (after 3 days), the mortality at 0.001 % came out at 0% and the mortality at 0.01 % worked out at 80%. In addition, the mortality at 0.1 % in data set [5] came to 100%. The compound also showed an LD50 at 168 h in data set [1] of 10 to 25 mg/kg.

Consider `CCOP(=S)(OCC)Oc1n[nH]c(=O)c2ccccc12` [known, reference compound], for which the mortality at 0.01 % in data set [4] (after 1 day) amounted to 0%. The mortality at 0.1 % in data set [4] turned out to be 100%.
